Ends that are not written are not given here.
Experiments:
MC3T3 cells = assay: Cell growth of MC3T3 cells (cell number); format: cell-based, mouse; details: αMEM containing 2% FBS; on Day 6; versus control (FIG. 3)
Method: (§1) As mouse-derived osteoblasts, cells of the MC3T3 cell strain or ST2 cell strain (purchased from Riken Cell Bank) were used. • (iii) Rat Femur Bone Marrow-derived Mesenchymal Stem Cells (BMMSC)
The PDL cells prepared in (1) were inoculated on a 24-well culture plate (FALCON) at a ratio of 5×10^3 cells/well. After the inoculation, the cells were cultured in DMEM containing 10% FBS for 1 day. On Day 0, next day of the inoculation, the peptide (a) prepared above was added to a culture medium (DMEM containing 2% FBS) at various concentrations. On Days 4 and 6, the cells were separated and dispersed by using PBS containing 0.08% trypsin and 0.04% ethylenediaminetetraacetic acid (EDTA), and cell number was counted by using a Coulter counter (COULTER Z1, Coulter Electronics).
Further, the peptides (a) and (b) were similarly examined for cell growth promoting effect on the MC3T3 cells. […] The symbol “cont” in FIG. 3 indicates the results for the cells cultured in αMEM containing 2% FBS alone, “B” indicates the results for the cells cultured in the medium added only with BMP2 (bone morphogenetic protein 2, Yamanouchi Pharmaceutical Co., Ltd.), “HN” indicates the results for the cells cultured in the medium added only with the peptide (b), and “PN” indicates the results for the cells cultured in the medium added with only the peptide (a). […]

ST2 cells = assay: Cell differentiation of ST2 cells (ALP activity); format: cell-based, mouse; details: for cell differentiation promoting effect on ST2 cells relative to BMP2: at confluent state (FIG. 7), comparison with BMP2; for cell differentiation promoting effect (ALP activity) on ST2 cells: at confluent state, αMEM containing 2% FBS (FIG. 7)
Method: as §1
(§2) As an index of cell differentiation, alkaline phosphatase (ALP) activity of cells was determined. Cells were inoculated in a 24-well culture plate at a ratio of 5×10^3 cells/well, added with the peptide (a) at various concentrations and cultured in DMEM or αMEM containing 2% FBS. One week after the time point when the cells reached a confluent state, ALP activity was determined by the following enzymochemical method (Bessey-Lowry method, Bessey O A, Lowry O H and Brock M J, A method for the rapid determination of alkaline phosphatase with five cubic millimeter of serum, J. Biol. Chem., 164:321-329, 1946).
(§3) The cultured cells were washed with PBS and then disrupted in 10 mM Tris-HCl buffer (pH 7.4, 500 μl) for 40 seconds by using an ultrasonic homogenizer (Handy Sonic model UR-20P, Tomy Seiko) and stirred. Then, 25 μl of this sample liquid was added to 125 μl of ALP buffer (0.1 M carbonate buffer, pH 9.8, 6.7 mM p-nitrophenyl phosphate, 2 mM MgCl2) and incubated at 37° C. for 30 minutes. The reaction was terminated by addition of 125 μl of 0.2 N NaOH, and absorbance was measured at 405 nm by using a microplate reader (Model 550, Bio-Rad Laboratories).
(§4) Further, the peptides (a) and (b) and BMP2 were similarly examined by using the ST2 cells and BMMSC cells. The symbol “cont” in the figures indicates the results for the cells cultured in αMEM containing 2% FBS alone, “B” indicates the results for the cells cultured in the medium added only with BMP2, “HN” indicates the results for the cells cultured in the medium added only with the peptide (b), and “PN” indicates the results for the cells cultured in the medium added only with the peptide (a). In the figures, the unit of numerical values shown after “B,” “HN” and “PN” is “ng/ml.”
Further, the peptides (b) and (k) to (n) were similarly examined at a final concentration of 100 ng/ml by using the ST2 cell strain. The symbol “cont” in the figure indicates the results for the cells cultured in DMEM containing 2% FBS alone.

PDL cells = assay: Cell differentiation of PDL cells (alkaline phosphatase activity, Bessey-Lowry method); format: cell-based, human; details: for ALP activity increasing effect on PDL cells relative to BMP2: at confluent state and one week after (FIG. 5, FIG. 6), comparison with BMP2
Excerpt: PDL cells were isolated from a healthy premolar carefully extracted from a patient who visited a hospital to extract teeth for orthodontic treatment so that periodontal ligament should not be damaged as far as possible, and cultured. The extracted tooth was washed with sterilized physiological saline and phosphate-buffered saline (PBS, Nissui), and then periodontal ligament existing in ⅓ of the tooth root at the center was scraped off with a sharp knife. The pieces of periodontal ligament were transferred to a plastic plate and minced into small fragments using a round-blade knife. Tissue fragments were left standing in a plate having a diameter of 35 mm (FALCON) and cultured in Dulbecco's modified Eagle medium (DMEM, Nissui) containing antibiotics (100 U/ml of penicillin G, 100 μg/ml of streptomycin and 250 μg/ml of gentamicin) and 10% fetal bovine serum (FBS, EQUITECH-BIO) at 37° C. under 5% CO2. Then, cells released from the periodontal ligament tissue fragments were subcultured under the same conditions, and the 3rd to 5th generation cells were used for experiments. • (ii) Mouse-derived Osteoblasts
as §2, §3
Further, the ALP activity in DMEM containing 2% FBS and DMEM or αMEM containing 2% FBS added with peptide (c) at various concentrations was also similarly examined. The symbol “cont” in FIG. 4 indicates the results for the cells cultured in DMEM containing 2% FBS alone, “PN” indicates the results for the cells cultured in the medium added only with the peptide (a), and “PC” indicates the results for the cells cultured in the medium added only with the peptide (c). In FIG. 4, “pg” and “ng” represent “pg/ml” and “ng/ml,” respectively.
Further, in addition to the peptide (a) (derived from swine), the human-derived peptide (b) and BMP were similarly examined. The results of ALP activity measurement performed when the cells reached a confluent state are shown in FIG. 5, and the results of ALP activity measurement performed one week after the confluent state was attained are shown in FIG. 6. The symbol “cont” in the figures indicates the results for the cells cultured in DMEM containing 2% FBS alone, “B” indicates the results for the cells cultured in the medium added only with BMP2, “PN” indicates the results for the cells cultured in the medium added only with the peptide (a), and “HN” indicates the results for the cells cultured in the medium added only with the peptide (b) In the figures, the unit of numerical values shown after “B,” “PN” and “HN” is “ng/ml.”

[1] = system: Rat femur bone marrow-derived mesenchymal stem cells (BMMSC); assay: Cell differentiation of BMMSC cells (ALP activity); format: cell-based; details: for cell differentiation promoting effect on BMSSC cells relative to BMP2: at confluent state (FIG. 8), comparison with BMP2; for cell differentiation promoting effect (ALP activity) on BMSSC cells: at confluent state, αMEM containing 2% FBS (FIG. 8)
Excerpt: Rat femur bone marrow-derived mesenchymal stem cells (BMMSC) were used. The cell strain of the cells was obtained according to the method of Maniatopoulos et al. (Maniatopoulos C, Sodek J and Melcher A H, Bone formation in vitro by stromal cells obtained from bone marrow of young adult rats, Cell Tissue Res., 254: 317-330, 1988). The femur was aseptically extracted, and surrounding soft tissue was removed as far as possible. The mesiodistal epiphysis of the femur was cut off, and the femur marrow tissue in 5 ml of 15S-containing minimum essential medium alpha medium (αMEM, GIBCO) was injected into 10 ml of the same culture broth by using a syringe. The obtained tissue was cultured in the 15S-containing αMEM at 37° C., and the 3rd to 5th generation cells were used for experiments. • (iv) Mouse-derived Cementoblasts
as §2, §3, §4

[2] = measured at confluent state and one week after (FIG. 5, FIG. 6), versus control

Sequence | MC3T3 cell number (cell growth promoting effect) (MC3T3 cells) | cell differentiation promoting effect on ST2 cells relative to BMP2 (ST2 cells) | cell differentiation promoting effect (ALP activity) on ST2 cells (ST2 cells) | ALP activity increasing effect on PDL cells relative to BMP2 (PDL cells) | ALP activity of the PDL cells (PDL cells; [2]) | ALP activity of the PDL cells (PDL cells; peptide at various concentrations, 2% FBS medium, one week after confluent state, versus control (FIG. 4)) | cell differentiation promoting effect on BMSSC cells relative to BMP2 [1] | cell differentiation promoting effect (ALP activity) on BMSSC cells [1]
VPAFPRQPGTPGVASL [Peptide (a)] | significantly increased | comparable to or higher than that of BMP2 | significant cell differentiation promoting effect | comparable to or higher than that of BMP2 | significantly increased | significantly increased | comparable to or higher than that of BMP2 | significant cell differentiation promoting effect
VPFFPQQSGTPGMASL [Peptide (b), peptide designed on the portion of human-derived sheathlin protein corresponding to (a)] | significantly increased | comparable to or higher than that of BMP2 | significant cell differentiation promoting effect | comparable to or higher than that of BMP2 | significantly increased |  | comparable to or higher than that of BMP2 | significant cell differentiation promoting effect
